# Calls of active or inactive are those of the source.
# Tests used:
# [1] = target: Dual specificity protein kinase CLK4 (Homo sapiens, UniProt Q9HAZ1); format: functional
# Aurora kinase A = Aurora kinase A (Homo sapiens, UniProt O14965); format: functional;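 note: value from the Navigating the Kinome kinase panel profiling, panel entry STK6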
# [2] = target: Dual specificity tyrosine-phosphorylation-regulated kinase 1A (Homo sapiens, UniProt Q13627); format: functional;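 note: measured against DYRK1A as one member of a broad kinome profiling panel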
# [3] = target: cAMP-dependent protein kinase catalytic subunit alpha (Homo sapiens, UniProt P17612); format: functional
# [4] = target: Mitogen-activated protein kinase kinase kinase kinase 4 (Homo sapiens, UniProt O95819); format: functional
# [5] = target: Cyclin-dependent kinase 8 (Homo sapiens, UniProt P49336); experiment: Navigating the Kinome. Panel member name: CDK8; format: functional
# Cyclin-dependent kinase 8, sequence (P49336 whole entry): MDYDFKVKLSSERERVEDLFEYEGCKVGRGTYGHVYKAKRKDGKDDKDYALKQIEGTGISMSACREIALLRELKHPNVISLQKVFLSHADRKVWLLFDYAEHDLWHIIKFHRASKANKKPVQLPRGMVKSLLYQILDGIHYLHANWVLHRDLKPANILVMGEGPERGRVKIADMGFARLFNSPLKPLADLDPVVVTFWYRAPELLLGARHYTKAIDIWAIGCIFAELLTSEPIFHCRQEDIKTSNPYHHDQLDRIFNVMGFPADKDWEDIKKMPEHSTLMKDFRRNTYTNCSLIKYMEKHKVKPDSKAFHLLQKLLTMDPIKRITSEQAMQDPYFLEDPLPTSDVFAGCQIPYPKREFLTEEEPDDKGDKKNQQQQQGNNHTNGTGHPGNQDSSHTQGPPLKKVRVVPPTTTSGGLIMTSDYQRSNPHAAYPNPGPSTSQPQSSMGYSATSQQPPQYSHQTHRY
# [6] = target: Protein kinase C theta type (Homo sapiens, UniProt Q04759); experiment: Navigating the Kinome. Panel member name: PRKCQ; format: functional
# [7] = target: Platelet-derived growth factor receptor beta (Homo sapiens, UniProt P09619); format: functional;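 note: value comes from a kinome panel, with PDGFRB tested as one panel member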
# [8] = target: Leucine-rich repeat serine/threonine-protein kinase 2 (Homo sapiens, UniProt Q5S007); format: functional;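 note: value from a broad kinome-wide panel profiling study in which LRRK2 was one of the kinases tested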
# [9] = target: Cyclin-dependent kinase 19 (Homo sapiens, UniProt Q9BWU1); experiment: Navigating the Kinome. Panel member name: CDC2L6; format: functional
# Cyclin-dependent kinase 19, sequence (Q9BWU1 whole entry): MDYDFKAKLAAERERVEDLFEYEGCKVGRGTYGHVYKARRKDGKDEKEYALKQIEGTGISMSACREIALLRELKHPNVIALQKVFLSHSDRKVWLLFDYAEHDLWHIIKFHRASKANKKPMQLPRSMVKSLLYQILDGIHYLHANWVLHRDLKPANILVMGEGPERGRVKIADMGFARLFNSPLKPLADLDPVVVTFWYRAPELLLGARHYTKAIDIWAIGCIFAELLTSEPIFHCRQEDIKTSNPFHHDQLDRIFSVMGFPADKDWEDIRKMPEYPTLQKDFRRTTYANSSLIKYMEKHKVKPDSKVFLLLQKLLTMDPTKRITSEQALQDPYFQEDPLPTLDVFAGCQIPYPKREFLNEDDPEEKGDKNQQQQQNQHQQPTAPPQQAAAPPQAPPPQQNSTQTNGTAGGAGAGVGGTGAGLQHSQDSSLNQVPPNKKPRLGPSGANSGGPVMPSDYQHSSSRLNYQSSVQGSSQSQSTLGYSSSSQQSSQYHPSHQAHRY
# [10] = target: Cyclin-dependent kinase 9 (Homo sapiens, UniProt P50750); format: functional;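 note: value from the CDK9 entry of a kinome-spanning kinase panel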
# Cyclin-dependent kinase 9, sequence (P50750 whole entry): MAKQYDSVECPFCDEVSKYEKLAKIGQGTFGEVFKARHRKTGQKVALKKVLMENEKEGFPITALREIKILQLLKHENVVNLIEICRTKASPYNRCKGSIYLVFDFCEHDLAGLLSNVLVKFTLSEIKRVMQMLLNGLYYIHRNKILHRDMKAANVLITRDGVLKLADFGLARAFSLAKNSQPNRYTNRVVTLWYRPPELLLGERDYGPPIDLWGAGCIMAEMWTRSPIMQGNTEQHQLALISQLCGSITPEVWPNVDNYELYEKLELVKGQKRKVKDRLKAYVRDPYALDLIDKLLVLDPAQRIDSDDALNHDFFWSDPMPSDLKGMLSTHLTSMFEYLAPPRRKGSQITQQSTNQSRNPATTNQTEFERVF
# [11] = target: Vascular endothelial growth factor receptor 2 (Homo sapiens, UniProt P35968); format: functional
# [12] = target: Macrophage colony-stimulating factor 1 receptor (Homo sapiens, UniProt P07333); format: functional;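 note: value comes from the Navigating the Kinome screening panel, CSF1R member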
# [13] = target: Mitogen-activated protein kinase 14 (Homo sapiens, UniProt Q16539); format: functional;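 note: part of a kinome-wide panel, MAPK14 entry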
# [14] = target: Casein kinase I isoform delta (Homo sapiens, UniProt P48730); format: functional;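 note: measured as one member (CSNK1D) of a kinome panel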
# Casein kinase I isoform delta, sequence (P48730 whole entry, canonical isoform): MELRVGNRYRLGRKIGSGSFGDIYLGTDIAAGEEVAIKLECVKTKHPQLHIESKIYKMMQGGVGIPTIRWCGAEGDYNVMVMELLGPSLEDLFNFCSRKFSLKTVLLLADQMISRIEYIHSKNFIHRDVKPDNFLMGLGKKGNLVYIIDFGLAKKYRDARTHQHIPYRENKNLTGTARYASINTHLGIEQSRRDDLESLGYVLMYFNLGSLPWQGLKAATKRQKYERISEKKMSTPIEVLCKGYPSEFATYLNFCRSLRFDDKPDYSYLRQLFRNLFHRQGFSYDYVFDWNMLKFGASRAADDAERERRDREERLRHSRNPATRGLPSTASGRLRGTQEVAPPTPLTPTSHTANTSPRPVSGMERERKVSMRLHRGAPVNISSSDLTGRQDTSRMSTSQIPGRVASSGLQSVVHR
# [15] = target: Serine/threonine-protein kinase pim-1 (Homo sapiens, UniProt P11309); format: functional
# Serine/threonine-protein kinase pim-1, sequence (P11309 whole entry): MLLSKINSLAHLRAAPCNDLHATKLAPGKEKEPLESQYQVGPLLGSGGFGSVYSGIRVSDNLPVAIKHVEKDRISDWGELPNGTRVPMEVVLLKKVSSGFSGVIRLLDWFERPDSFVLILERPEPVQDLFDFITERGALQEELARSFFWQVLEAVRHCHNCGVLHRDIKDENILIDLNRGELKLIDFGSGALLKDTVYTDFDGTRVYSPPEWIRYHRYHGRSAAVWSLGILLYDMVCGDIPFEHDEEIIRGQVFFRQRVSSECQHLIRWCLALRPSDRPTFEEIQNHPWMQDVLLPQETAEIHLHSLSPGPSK
# [16] = target: DNA dC->dU-editing enzyme APOBEC-3G (Homo sapiens, UniProt Q9HC16); experiment: inhibition of APOBEC3G ssDNA deamination – biochemical, fluorescence, single-stranded DNA substrate, SAR follow-up (AID 602136); format: functional; conditions: read-out: IC50_Mean
# DNA dC->dU-editing enzyme APOBEC-3G, sequence (Q9HC16 whole entry): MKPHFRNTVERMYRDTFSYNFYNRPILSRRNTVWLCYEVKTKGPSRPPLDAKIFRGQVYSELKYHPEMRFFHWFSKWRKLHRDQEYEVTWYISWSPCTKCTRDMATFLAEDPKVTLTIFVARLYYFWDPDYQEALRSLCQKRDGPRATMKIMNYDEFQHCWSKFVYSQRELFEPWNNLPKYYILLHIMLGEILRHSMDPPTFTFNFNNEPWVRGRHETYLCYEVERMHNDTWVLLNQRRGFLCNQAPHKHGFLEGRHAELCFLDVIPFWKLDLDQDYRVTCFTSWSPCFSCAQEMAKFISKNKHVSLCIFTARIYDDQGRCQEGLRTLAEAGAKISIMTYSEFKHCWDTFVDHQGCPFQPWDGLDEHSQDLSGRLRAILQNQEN
# [17] = target: DNA dC->dU-editing enzyme APOBEC-3A (Homo sapiens, UniProt P31941); experiment: SAR analysis of small molecule inhibitors of APOBEC3A DNA Deaminase via a fluorescence-based single-stranded DNA deaminase assay.; format: functional; conditions: read-out: IC50_Mean
# Insulin-degrading enzyme [18] = target: T1, Insulin-degrading enzyme (Homo sapiens, UniProt P14735); experiment: recombinant IDE activation, cell-free – biochemical, fluorescence polarization, counter-screen for IDE activator project, dose response (AID 588681)
# T1 sequence (P14735 whole entry): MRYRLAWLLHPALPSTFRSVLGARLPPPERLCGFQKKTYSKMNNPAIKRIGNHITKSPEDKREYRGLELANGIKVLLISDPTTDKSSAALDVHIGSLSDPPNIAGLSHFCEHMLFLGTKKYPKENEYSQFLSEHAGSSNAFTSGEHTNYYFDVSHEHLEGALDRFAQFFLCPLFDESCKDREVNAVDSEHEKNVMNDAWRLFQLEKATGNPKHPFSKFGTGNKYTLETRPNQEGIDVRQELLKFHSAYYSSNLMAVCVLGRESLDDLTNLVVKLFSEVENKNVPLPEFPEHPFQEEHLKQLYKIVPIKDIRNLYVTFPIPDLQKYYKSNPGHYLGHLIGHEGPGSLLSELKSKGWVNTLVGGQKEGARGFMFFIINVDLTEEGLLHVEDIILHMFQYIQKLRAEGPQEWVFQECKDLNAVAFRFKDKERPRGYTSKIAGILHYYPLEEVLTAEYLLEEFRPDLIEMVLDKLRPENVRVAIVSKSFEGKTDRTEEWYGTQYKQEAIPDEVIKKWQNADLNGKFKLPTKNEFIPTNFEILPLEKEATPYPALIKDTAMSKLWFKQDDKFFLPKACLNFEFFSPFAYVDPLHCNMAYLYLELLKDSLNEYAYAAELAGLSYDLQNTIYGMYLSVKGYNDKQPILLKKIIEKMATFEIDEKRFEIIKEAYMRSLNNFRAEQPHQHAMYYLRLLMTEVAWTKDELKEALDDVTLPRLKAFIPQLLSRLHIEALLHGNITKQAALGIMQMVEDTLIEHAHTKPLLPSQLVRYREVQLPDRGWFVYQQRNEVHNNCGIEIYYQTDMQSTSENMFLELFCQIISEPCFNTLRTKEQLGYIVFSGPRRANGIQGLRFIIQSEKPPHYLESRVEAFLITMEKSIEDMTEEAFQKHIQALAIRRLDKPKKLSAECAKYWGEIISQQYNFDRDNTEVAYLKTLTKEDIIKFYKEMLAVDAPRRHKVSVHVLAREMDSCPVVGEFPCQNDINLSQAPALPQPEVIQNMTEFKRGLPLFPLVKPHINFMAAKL
# HEK293 [19] = experiment: optical interference in Abeta FP readout, dose response, artefact control for IDE activator project, biochemical, fluorescence polarization (AID 588442); format: functional, cell-based; conditions: Homo sapiens
# HEK293 [20] = experiment: membrane integrity loss in HEK cells – cell-based, fluorescence, cytotoxicity control for IDE activator project, dose response (AID 588440); format: functional; conditions: Homo sapiens;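 note: cytotoxicity by LDH release measuring loss of membrane integrity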
# Insulin-degrading enzyme [21] = target: T1, Insulin-degrading enzyme; experiment: cellular IDE activation of Abeta substrate cleavage – fluorescence polarization, HEK cells, dose response (AID 588439); format: functional, cell-based
# HEK293 [22] = experiment: cells; conditions: Homo sapiens
# [23] = target: Protein disulfide-isomerase (Homo sapiens, UniProt P07237); experiment: inhibition of PDI-driven insulin aggregation – biochemical, turbidity, absorbance, cherry-picked samples, dose response (AID 602350); format: functional
# Protein disulfide-isomerase, sequence (P07237 whole entry): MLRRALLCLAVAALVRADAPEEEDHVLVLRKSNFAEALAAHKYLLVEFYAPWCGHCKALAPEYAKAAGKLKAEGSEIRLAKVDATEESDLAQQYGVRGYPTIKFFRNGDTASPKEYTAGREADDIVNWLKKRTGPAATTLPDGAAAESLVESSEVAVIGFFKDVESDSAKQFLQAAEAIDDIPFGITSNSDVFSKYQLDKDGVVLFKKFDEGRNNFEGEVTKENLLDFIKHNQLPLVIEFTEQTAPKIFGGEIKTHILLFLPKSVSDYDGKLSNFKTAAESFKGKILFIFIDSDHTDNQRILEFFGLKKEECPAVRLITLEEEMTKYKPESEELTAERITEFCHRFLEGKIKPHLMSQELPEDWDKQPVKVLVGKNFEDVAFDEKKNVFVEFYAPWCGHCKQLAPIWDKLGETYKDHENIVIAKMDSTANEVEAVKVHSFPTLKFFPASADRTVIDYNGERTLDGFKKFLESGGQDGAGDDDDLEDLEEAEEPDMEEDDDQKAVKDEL
# Vero = experiment: cells; format: functional; conditions: Chlorocebus sabaeus
# HEK293 [24] = experiment: cells; conditions: Homo sapiens; remark: listed apart in the source
# Aurora kinase A, sequence (O14965 whole entry): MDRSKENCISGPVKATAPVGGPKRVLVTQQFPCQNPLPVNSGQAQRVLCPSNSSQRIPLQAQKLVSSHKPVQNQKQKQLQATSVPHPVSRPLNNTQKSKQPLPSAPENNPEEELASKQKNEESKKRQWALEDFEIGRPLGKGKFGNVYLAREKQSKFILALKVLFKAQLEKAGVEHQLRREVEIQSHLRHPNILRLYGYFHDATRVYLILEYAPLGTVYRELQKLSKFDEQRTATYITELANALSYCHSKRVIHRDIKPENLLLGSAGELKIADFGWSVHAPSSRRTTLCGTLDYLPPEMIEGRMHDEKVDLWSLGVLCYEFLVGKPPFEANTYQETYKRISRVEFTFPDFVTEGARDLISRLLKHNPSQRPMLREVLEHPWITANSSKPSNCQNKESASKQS
# Dual specificity protein kinase CLK4, sequence (Q9HAZ1 whole entry): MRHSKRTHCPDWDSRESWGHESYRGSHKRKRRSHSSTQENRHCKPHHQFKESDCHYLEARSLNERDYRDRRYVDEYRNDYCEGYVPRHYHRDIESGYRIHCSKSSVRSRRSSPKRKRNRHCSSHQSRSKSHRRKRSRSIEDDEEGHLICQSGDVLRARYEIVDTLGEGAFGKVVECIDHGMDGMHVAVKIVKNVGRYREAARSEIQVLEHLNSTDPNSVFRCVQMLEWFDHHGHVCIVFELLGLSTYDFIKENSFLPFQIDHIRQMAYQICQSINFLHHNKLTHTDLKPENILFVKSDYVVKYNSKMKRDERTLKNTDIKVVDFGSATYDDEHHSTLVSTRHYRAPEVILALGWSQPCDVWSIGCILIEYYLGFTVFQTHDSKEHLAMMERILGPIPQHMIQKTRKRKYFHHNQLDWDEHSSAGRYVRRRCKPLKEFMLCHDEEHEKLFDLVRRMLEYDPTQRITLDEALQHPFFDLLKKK
smiles,measurement,setting,value
C(=Cc1ccc2nccn2n1)c1ccccc1,Ki,[1],3.98 µM (active)
same,Ki,Aurora kinase A,> 63.1 µM (inactive)
same,Ki,[2],> 79.4 µM (inactive)
same,Ki,[3],5.01 µM (active)
same,Ki,[4],7.94 µM (active)
same,Ki,[5],12.6 µM (active)
same,Ki,[6],> 100 µM (inactive)
same,Ki,[7],> 79.4 µM (inactive)
same,Ki,[8],3.98 µM (active)
same,Ki,[9],> 100 µM (inactive)
same,Ki,[10],> 63.1 µM (inactive)
same,Ki,[11],> 100 µM (inactive)
same,Ki,[12],> 100 µM (inactive)
same,Ki,[13],100 µM (active)
CN1CCN(Cc2ccc3c(c2)-c2n[nH]c(=O)c4cccc(c24)O3)CC1,Ki,[14],3.16 µM (active)
same,Ki,[15],5.01 µM (active)
COc1ccc2c(Cl)c(-c3nnc(SCC(=O)c4ccc(F)cc4)n3C)sc2c1,IC50,[16],> 99 µM (inactive)
same,IC50,[17],> 99 µM (inactive)
CCCCCc1nnc(NC(=O)C2CCCO2)s1 (stereo unspecified),EC50,Insulin-degrading enzyme [18],> 54.7 µM (inactive)
same,EC50,HEK293 [19],> 54.7 µM (inactive)
same,IC50,HEK293 [20],> 89.1 µM (inactive)
same,EC50,Insulin-degrading enzyme [21],> 54.7 µM (inactive)
COC1/C=C/C=C(\C)Cc2cc(O)c(Cl)c(c2)N(C)C(=O)CC(OC(=O)C(C)C)C2(C)OC2C(C)C2CC1(O)NC(=O)O2 (stereo unspecified),EC50,HEK293 [22],> 59.7 µM (inactive)
same,AC50,[23],9.59 µM (active)
same,CC50,Vero,< 0.05 µM (active)
same,EC50,HEK293 [24],> 59.7 µM (inactive)
